This test addresses Arabidopsis thaliana SHMT. Briefly: SHMT activity assay (ED50 SHMT), coupled with N5,N10-CH2-THF dehydrogenase, NADH at 340 nm. It counts as biochemical. The method in brief:
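His-tagged SHMT purified on Ni-NTA. NADH formation followed at 340 nm for 30 min; ED50 from inhibition of initial velocity.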

[1] abbreviates: Arabidopsis thaliana SHMT enzyme assay, values given as upper bounds.
Setting [2] is: Table 2, values given as upper bounds.
The mark [3] stands for this setting: Table 2, Arabidopsis thaliana SHMT enzyme assay, values given as upper bounds.
Where [4] appears, read: inhibition of initial velocity of Arabidopsis thaliana SHMT.

A word on the EC50: it is the concentration giving half of the maximal effect. Low values mean greater potency, high ones weaker potency.

For `Cc1n[nH]c2c1C(c1cc(C#N)cc(N(C)C(=O)CCCc3nnn[nH]3)c1)(C1CCC1)C(C#N)=C(N)O2` (stereo not shown) [Compound 2.727], the EC50 under setting [1] is below 100 nM. For `COc1ccc(C2(C3CCCC3)C(C#N)=C(N)Oc3[nH]nc(C)c32)cc1Cl` (stereo not shown) [Compound 2.203.], the EC50 under setting [2] is below 1000 nM.

As to `Cc1n[nH]c2c1C(c1cc(C#N)cc(Cc3nnn[nH]3)c1)(C(C)C)C(C#N)=C(N)O2` (stereo not shown) [Compound 2.738], the EC50 under setting [1] is below 100 nM. On the same count and under the same terms, the result for `Cc1n[nH]c2c1C(c1cc(CCc3nnn[nH]3)cc(-c3nnn[nH]3)c1)(C(C)C)C(C#N)=C(N)O2` (stereo not shown) [Compound 2.716] reads below 10000 nM.

Turning to `N#CC1=C(N)Oc2[nH]ncc2C1(c1cc(Cl)cc(Cl)c1)C1CCC1` (stereo not shown) [Compound 2.244], the EC50 under setting [3] is below 10 nM.

The compound `COc1ccc(C2(C(C)C)C(C#N)=C(N)Oc3[nH]nc(C)c32)cc1` (stereo not shown) [Compound 2.167.] came in with an EC50 under setting [2] below 1000 nM. Turning to `Cc1n[nH]c2c1C(c1cc(Cl)cc(Cl)c1)(C1CCCCC1)C(C#N)=C(N)O2` (stereo not shown) [Compound 2.206.], under setting [2], the EC50 was below 10000 nM. Compound `CCC1(c2ccc(F)c(F)c2)C(C#N)=C(N)Oc2[nH]nc(C)c21` (stereo not shown) [Compound 2.16.] displayed an EC50 under setting [2] below 10000 nM. The same measure, in the same setting: then `Cc1n[nH]c2c1C(c1cc(Cl)cc(OCc3nnn[nH]3)c1)(C1CCC1)C(C#N)=C(N)O2` (stereo not shown) [Compound 2.446], with below 10 nM. The compound `N#CC1=C(N)Oc2[nH]ncc2C1(c1cc(Cl)cc(C(F)(F)F)c1)C1CCC1` (stereo not shown) [Compound 2.252] returned an EC50 under setting [3] below 10 nM.

In turn, `COC(=O)CCS(=O)(=O)N(C)c1cc(C#N)cc(C2(C(C)C)C(C#N)=C(N)Oc3[nH]nc(C)c32)c1` (stereo not shown) [Compound 2.726] came in with an EC50 under setting [1] below 100 nM. As for `Cc1n[nH]c2c1C(c1ccc(CCCc3nnn[nH]3)c(Cl)c1)(C1CCC1)C(C#N)=C(N)O2` (stereo not shown) [Compound 2.678], the EC50 under setting [1] is below 10 nM. `Cc1n[nH]c2c1C(c1cc3ccc(Cl)cc3s1)(C1CCC1)C(C#N)=C(N)O2` (stereo not shown) [Compound 4.63]: the EC50 under setting [4] is below 1000 nM. Consider `CCC1(c2cc(Cl)cc(C#N)c2)C(C#N)=C(N)Oc2[nH]nc(COC)c21` (stereo not shown) [Compound 2.587], for which the EC50 under setting [2] is below 1000 nM.

On to `CCC1(c2ccc3[nH]c(=O)oc3c2)C(C#N)=C(N)Oc2[nH]nc(C)c21` (stereo not shown) [Compound 4.72], for which the concentration giving a half-maximal response (EC50) under setting [4] is below 1000 nM. Regarding `Cc1n[nH]c2c1C(c1ccc(CCCC#N)c(Cl)c1)(C1CCC1)C(C#N)=C(N)O2` (stereo not shown) [Compound 2.673], under setting [1], the EC50 is below 10 nM. For `Cc1n[nH]c2c1C(CCC#N)(c1cccc(Cl)c1)C(C#N)=C(N)O2` (stereo not shown) [Compound 2.100.], the EC50 under setting [2] was below 10000 nM. Same read-out and setting: the result for `COC(=O)c1cc(-c2cc(C#N)cc(C3(C4CCC4)C(C#N)=C(N)Oc4[nH]nc(C)c43)c2)ccc1Cl` (stereo not shown) [Compound 2.509] reads below 10 nM; that for `COc1c(F)cc(C2(C3(F)CC3)C(C#N)=C(N)Oc3[nH]nc(C)c32)cc1F` (stereo not shown) [Compound 2.448], below 1000 nM. The same measure, in the same setting: the result for `Cc1n[nH]c2c1C(c1cc(C#N)cc(-c3ccc(C(=O)O)c(C(=O)O)c3)c1)(C1CCC1)C(C#N)=C(N)O2` (stereo not shown) [Compound 2.565] reads below 10 nM; that for `CCc1n[nH]c2c1C(CC)(c1cc(Cl)cc(Cl)c1)C(C#N)=C(N)O2` (stereo not shown) [Compound 2.109.], below 1000 nM.

Compound `CCCC1(c2cc(Br)cc(C#N)c2)C(C#N)=C(N)Oc2[nH]nc(C(C)C)c21` (stereo not shown) [Compound 2.585] came in with an EC50 under setting [2] below 100 nM. `COc1c(Cl)cc(C2(C3CCC3)C(C#N)=C(N)Oc3[nH]ncc32)cc1Cl` (stereo not shown) [Compound 2.293] displayed an EC50 under setting [3] below 10 nM. On to `Cc1n[nH]c2c1C(c1cc(C#N)cc(N(C)CCC#N)c1)(C1CCC1)C(C#N)=C(N)O2` (stereo not shown) [Compound 2.629], for which the EC50 under setting [2] is below 10 nM. Compound `COc1ccc(C2(C(C)C)C(C#N)=C(N)Oc3[nH]nc(C4CC4)c32)cc1Cl` (stereo not shown) [Compound 2.148.] displayed an EC50 under setting [2] below 1000 nM. On to `Cc1n[nH]c2c1C(c1cc(Cl)cc(-c3ccccc3)c1)(C1CC1)C(C#N)=C(N)O2` (stereo not shown) [Compound 2.184.], for which, under setting [2], the concentration for a half-maximal effect (EC50) is below 100 nM. The compound `Cc1n[nH]c2c1C(c1cc(Br)cc(N(C)C(=O)Cc3nnn[nH]3)c1)(C1CCC1)C(C#N)=C(N)O2` (stereo not shown) [Compound 2.730] gave an EC50 under setting [1] below 10 nM. Turning to `Cc1n[nH]c2c1C(c1cncc(C(F)(F)F)c1)(C1CCC1)C(C#N)=C(N)O2` (stereo not shown) [Compound 4.35], under setting [4], the EC50 is below 10 nM. `Cc1n[nH]c2c1C(c1cc(C#N)cc(N(C)S(=O)(=O)CC(=O)O)c1)(C(C)C)C(C#N)=C(N)O2` (stereo not shown) [Compound 2.732] displayed an EC50 under setting [1] below 100 nM. As to `Cc1n[nH]c2c1C(c1cc(F)c(O)c(F)c1)(C1CCC1)C(C#N)=C(N)O2` (stereo not shown) [Compound 2.449], the EC50 under setting [2] was below 100 nM. For `COc1n[nH]c2c1C(c1cc(Cl)cc(Cl)c1)(C1CCC1)C(C#N)=C(N)O2` (stereo not shown) [Compound 2.386], the EC50 under setting [3] is below 10 nM. In the case of `COc1ccc(C2(C3CCCC3)C(C#N)=C(N)Oc3[nH]nc(C)c32)cc1C(F)(F)F` (stereo not shown) [Compound 2.215], the EC50 under setting [3] was below 10 nM.

In turn, `Cc1n[nH]c2c1C(c1cc(Cl)cc(Cl)c1)(C1CC(F)C1)C(C#N)=C(N)O2` (stereo not shown) [Compound 2.674] gave an EC50 under setting [1] below 10 nM. Compound `Cc1n[nH]c2c1C(c1cccc([S+](C)[O-])c1)(C1CCC1)C(C#N)=C(N)O2` (stereo not shown) [Compound 2.312] came in with an EC50 under setting [3] below 1000 nM.

Under setting [4], `Cc1n[nH]c2c1C(c1cc3ccccc3o1)(C1CCC1)C(C#N)=C(N)O2` (stereo not shown) [Compound 4.52] displayed an EC50 below 100 nM. Regarding `Cc1n[nH]c2c1C(c1ccc(OCc3ccccc3)c(Cl)c1)(C1CC1)C(C#N)=C(N)O2` (stereo not shown) [Compound 2.186.], the EC50 under setting [2] is below 100 nM.

`Cc1n[nH]c2c1C(c1ccc(CCc3nnn[nH]3)c(C#N)c1)(C(C)C)C(C#N)=C(N)O2` (stereo not shown) [Compound 2.734] displayed an EC50 under setting [1] below 100 nM. `CCC1(c2ccc(Cl)c(Cl)c2)C(C#N)=C(N)Oc2[nH]nc(C)c21` (stereo not shown) [Compound 2.14.]: under setting [2], the EC50 is below 100 nM. `CCCC1(c2cc(Cl)cc(C#N)c2)C(C#N)=C(N)Oc2[nH]nc(C)c21` (stereo not shown) [Compound 2.533] came in with an EC50 under setting [2] below 10 nM. Same read-out and setting: the result for `CCC1(c2ccc(OC(F)F)cc2)C(C#N)=C(N)Oc2[nH]nc(C)c21` (stereo not shown) [Compound 2.32.] reads below 10000 nM.

`CCOC(=O)COc1ccc(-c2cc(C#N)cc(C3(C4CCC4)C(C#N)=C(N)Oc4[nH]nc(C)c43)c2)cc1` (stereo not shown) [Compound 2.536] showed an EC50 under setting [2] below 10 nM. `COc1ccc(C2(C3(F)CC3)C(C#N)=C(N)Oc3[nH]nc(C)c32)cc1Cl` (stereo not shown) [Compound 2.260] came in with an EC50 under setting [3] below 10 nM. On to `Cc1n[nH]c2c1C(c1cc(-c3cccc(F)c3)cs1)(C1CCC1)C(C#N)=C(N)O2` (stereo not shown) [Compound 4.47], for which the EC50 under setting [4] is below 100 nM.

As for `CCC1(c2cc(C(F)(F)F)cc(C(F)(F)F)c2)C(C#N)=C(N)Oc2[nH]ncc21` (stereo not shown) [Compound 2.64.], the EC50 under setting [2] is below 1000 nM. Take `Cc1ccc(-c2ccc(C3(C4CCC4)C(C#N)=C(N)Oc4[nH]nc(C)c43)s2)cc1` (stereo not shown) [Compound 4.13]: the EC50 under setting [4] was below 10 nM. In the case of `Cc1n[nH]c2c1C(c1cc(Cl)cc(-c3ccoc3)c1)(C1CCC1)C(C#N)=C(N)O2` (stereo not shown) [Compound 2.220], the EC50 under setting [3] was below 10 nM.

In turn, `CCC1(c2cc(F)c(OC)c(F)c2)C(C#N)=C(N)Oc2[nH]nc(C)c21` (stereo not shown) [Compound 2.45.] yielded an EC50 under setting [2] below 1000 nM.

The compound `Cc1n[nH]c2c1C(c1cc(C#N)cc(C(=O)O)c1)(C1CCC1)C(C#N)=C(N)O2` (stereo not shown) [Compound 2.371] had an EC50 under setting [3] below 1000 nM. Under setting [3], `Cc1n[nH]c2c1C(c1ccc(Cl)c(Cl)c1)(C1(F)CC1)C(C#N)=C(N)O2` (stereo not shown) [Compound 2.245] yielded an EC50 below 10 nM.

For the compound `Cc1n[nH]c2c1C(c1cc(Cl)cc(-c3cccc(F)c3)c1)(C1CC1)C(C#N)=C(N)O2` (stereo not shown) [Compound 2.187.], the EC50 under setting [2] was below 100 nM. For `CCC1(c2ccc3c(c2)C(C)(C)C(C)C3(C)C)C(C#N)=C(N)Oc2[nH]nc(C)c21` (stereo not shown) [Compound 4.71], the EC50 under setting [4] is below 1000 nM. The compound `Cc1n[nH]c2c1C(c1ccc(Cl)c(Cl)c1)(C1CCC1)C(C#N)=C(N)O2` (stereo not shown) [Compound 2.193.] showed an EC50 under setting [2] below 10 nM. Take `CCC1(c2cccc(Cl)c2)C(C#N)=C(N)Oc2[nH]nc(C(C)C)c21` (stereo not shown) [Compound 2.116.]: under setting [2], the EC50 is below 1000 nM. As for `COc1n[nH]c2c1C(c1cc(Br)cc(C#N)c1)(C1CCC1)C(C#N)=C(N)O2` (stereo not shown) [Compound 2.388], the EC50 under setting [3] is below 10 nM. In turn, `Cc1n[nH]c2c1C(c1cc(Cl)cc(Cl)c1)(C(C)C)C(C#N)=C(N)O2` (stereo not shown) [Compound 2.112.] returned an EC50 under setting [2] below 10 nM. Same read-out and setting: then `Cc1n[nH]c2c1C(c1ccc(CC(=O)O)c(C#N)c1)(C1CCC1)C(C#N)=C(N)O2` (racemic) [Compound 2.541], with below 1000 nM.

For `Cc1n[nH]c2c1C(c1ccc(F)c(Cl)c1)(C1CCCC1)C(C#N)=C(N)O2` (stereo not shown) [Compound 2.228], the EC50 under setting [3] was below 100 nM. Under setting [2], `Cc1n[nH]c2c1C(c1cc(C#N)cc(-c3ccc(O)c(C(F)(F)F)c3)c1)(C1CCC1)C(C#N)=C(N)O2` (stereo not shown) [Compound 2.459] yielded a concentration giving a half-maximal response (EC50) below 10 nM.

The compound `Cc1n[nH]c2c1C(CC(C)C)(c1ccc(Cl)c(Cl)c1)C(C#N)=C(N)O2` (stereo not shown) [Compound 2.141.] yielded an EC50 under setting [2] below 1000 nM.

Consider `N#CC1=C(N)Oc2[nH]ncc2C1(c1cc(Br)cc(C#N)c1)C1(F)CC1` (stereo not shown) [Compound 2.380], for which the EC50 under setting [3] was below 10 nM. The same measure, in the same setting: then `Cc1n[nH]c2c1C(c1cccc(OC(F)F)c1)(C1CCC1)C(C#N)=C(N)O2` (stereo not shown) [Compound 2.264], with below 10 nM; and `N#CC1=C(N)Oc2[nH]ncc2C1(c1cc(Cl)cc(-c2cscn2)c1)C1CCC1` (stereo not shown) [Compound 2.339], with below 100 nM; and `Cc1n[nH]c2c1C(c1cccc(S(C)(=O)=O)c1)(C1CCC1)C(C#N)=C(N)O2` (stereo not shown) [Compound 2.313], with below 1000 nM. `CCOC(=O)CCCN(C)c1cc(C#N)cc(C2(C3CCC3)C(C#N)=C(N)Oc3[nH]nc(C)c32)c1` (stereo not shown) [Compound 2.658]: under setting [1], the EC50 was below 10 nM. For `COc1ccc(C2(C(C)(C)F)C(C#N)=C(N)Oc3[nH]nc(C)c32)cc1Cl` (stereo not shown) [Compound 2.620], the EC50 under setting [2] is below 10 nM.

`CCC1(c2ccc(NC(C)=O)cc2)C(C#N)=C(N)Oc2[nH]nc(C)c21` (stereo not shown) [Compound 2.6.]: the EC50 under setting [2] is below 10000 nM.

`Cc1n[nH]c2c1C(c1ccc(Cc3nnn[nH]3)c(Cl)c1)(C1CCC1)C(C#N)=C(N)O2` (stereo not shown) [Compound 2.639] displayed an EC50 under setting [2] below 10 nM.

For the origin of these results see patent publication US9480259B2, “Pyrazolopyrans having herbicidal and pharmaceutical properties” (BASF SE, priority 2012, dated 2016).
